Source: the supplement of paper PMC11061612

What was measured:
Test in all cases: Bliss excess, mean over the matrix (fraction); higher = more synergy
[1] = system: NCI-H1623 (Lung Adenocarcinoma)
Summary of the method: (§1)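 Cell lines grown in DMEM/F12 or RPMI with 10% FBS were plated in 1536-well plates and held 24 hours at 37°C, 5% CO2 before 72 hours of exposure to two-drug dose matrices, with DMSO typically at 0.2%. CellTiter-Glo 2.0 luminescence gave viability, which was converted to inhibition. Vehicle wells were set to 0 and blank wells to 1. Combination Emax is the second-highest inhibition in the matrix, and Bliss excess is the observed combination effect minus the expected EA + EB − EA·EB, where EA and EB are the single-agent effects.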

[2] = system: PC-14 (Lung Adenocarcinoma)
Summary of the method: as §1

[3] = system: NCI-H810 (Non-Small Cell Lung Carcinoma)
Summary of the method: as §1

[4] = system: AsPC-1 (Pancreatic Carcinoma)
Summary of the method: as §1

[5] = system: NCI-H1155 (Non-Small Cell Lung Carcinoma)
Summary of the method: as §1

[6] = system: SK-MM-2 (Plasma Cell Myeloma)
Summary of the method: as §1

[7] = system: NCI-H1755 (Lung Adenocarcinoma)
Summary of the method: as §1

[8] = system: 786-0 (Kidney Carcinoma)
Summary of the method: as §1

[9] = system: RPMI-8866 (Chronic Myelogenous Leukemia)
Summary of the method: as §1

[10] = system: KYSE-70 (Esophageal Squamous Cell Carcinoma)
Summary of the method: as §1

[11] = system: BALL-1 (B-Lymphoblastic Leukemia)
Summary of the method: as §1

[12] = system: LOUCY (T-Lymphoblastic Leukemia)
Summary of the method: as §1

[13] = system: Becker (Low Grade Glioma)
Summary of the method: as §1

[14] = system: RERF-LC-KJ (Lung Adenocarcinoma)
Summary of the method: as §1

[15] = system: FLO-1 (Esophageal Adenocarcinoma)
Summary of the method: as §1

[16] = system: HSC-3 (Oral Cavity Carcinoma)
Summary of the method: as §1

[17] = system: HuO-3N1 (Osteosarcoma)
Summary of the method: as §1

[18] = system: NCI-H1563 (Lung Adenocarcinoma)
Summary of the method: as §1

[19] = system: LAMA-84 (Chronic Myelogenous Leukemia)
Summary of the method: as §1

[20] = system: RT4 (Bladder Carcinoma)
Summary of the method: as §1

`CCN(CCO)CCCOc1ccc2c(Nc3cc(CC(=O)Nc4cccc(F)c4)[nH]n3)ncnc2c1` [AZD2811] + C=CCn1c(=O)c2cnc(Nc3ccc(N4CCN(C)CC4)cc3)nc2n1-c1cccc(C(C)(C)O)n1 [AZD1775] (first compound max 1 µM, partner max 1 µM) was tested, and the Bliss excess [1] was 0.009, the Bliss excess [2] was -0.0026 and the Bliss excess [3] was -0.0022. For the same compound, the Bliss excess [4] was -0.0738, the Bliss excess [5] was 0.0451 and the Bliss excess [6] was -0.0005. The Bliss excess [7] was -0.0428, the Bliss excess [8] was -0.0246 and the Bliss excess [9] was 0.0714. The Bliss excess [10] was -0.0449, the Bliss excess [11] was 0.0612 and the Bliss excess [12] was -0.019. It also gave a Bliss excess [13] of -0.0465, a Bliss excess [14] of 0.0515 and a Bliss excess [15] of -0.0162. The Bliss excess [16] was 0.0504, the Bliss excess [17] was -0.0504 and the Bliss excess [18] was 0.001. It also gave a Bliss excess [19] of 0.0026 and a Bliss excess [20] of 0.0196.

`CCN(CCO)CCCOc1ccc2c(Nc3cc(CC(=O)Nc4cccc(F)c4)[nH]n3)ncnc2c1` [AZD2811] + C[C@@H]1COCCN1C2=NC(=NC(=C2)C3(CC3)[S@](=N)(=O)C)C4=C5C=CNC5=NC=C4 [AZD6738] (first compound max 1 µM, 7x7, partner max 10 µM) showed a Bliss excess [1] of -0.0271, a Bliss excess [2] of -0.0492 and a Bliss excess [3] of -0.0764. It also gave a Bliss excess [4] of -0.0164, a Bliss excess [5] of -0.0099 and a Bliss excess [6] of -0.0732. The Bliss excess [7] was -0.0621, the Bliss excess [8] was -0.0465 and the Bliss excess [9] was -0.0271. The Bliss excess [10] was -0.0383, the Bliss excess [11] was 0.0288 and the Bliss excess [12] was -0.0518. The Bliss excess [13] was -0.0343, the Bliss excess [14] was -0.0512 and the Bliss excess [15] was -0.0611. For the same compound, the Bliss excess [16] was -0.0195, the Bliss excess [17] was -0.0218 and the Bliss excess [18] was -0.0114. For the same compound, the Bliss excess [19] was -0.0175 and the Bliss excess [20] was -0.0318.

In the case of `CCN(CCO)CCCOc1ccc2c(Nc3cc(CC(=O)Nc4cccc(F)c4)[nH]n3)ncnc2c1` [AZD2811] + O=C(c1cc(Cc2n[nH]c(=O)c3ccccc23)ccc1F)N1CCN(C(=O)C2CC2)CC1 [Olaparib] (first compound max 1 µM, 7x7, partner max 10 µM), the Bliss excess [1] was -0.0526, the Bliss excess [2] was 0.0228 and the Bliss excess [3] was -0.016. It also gave a Bliss excess [4] of -0.0273, a Bliss excess [5] of 0.0393 and a Bliss excess [6] of -0.0256. The Bliss excess [7] was 0.0146, the Bliss excess [8] was -0.0274 and the Bliss excess [9] was 0.147. It also gave a Bliss excess [10] of 0.0005, a Bliss excess [11] of 0.147 and a Bliss excess [12] of -0.0463. It also gave a Bliss excess [13] of -0.0371, a Bliss excess [14] of -0.0471 and a Bliss excess [15] of -0.0153. It also gave a Bliss excess [16] of 0.0273, a Bliss excess [17] of -0.0185 and a Bliss excess [18] of -0.0221. It also gave a Bliss excess [19] of 0.0269 and a Bliss excess [20] of 0.0243.

For `CN(CCO)CC[C@H](CSc1ccccc1)Nc1ccc(S(=O)(=O)NC(=O)c2ccc(N3CCC([C@@H](O)c4ccccc4-c4ccc(Cl)cc4)CC3)cc2)cc1S(=O)(=O)C(F)(F)F` [AZD4320] + C1CN(CCC1(C(=O)N[C@@H](CCO)C2=CC=C(C=C2)Cl)N)C3=NC=NC4=C3C=CN4 [Capivasertib] (first compound max 1 µM, 7x7, partner max 3 µM), the Bliss excess [1] was -0.002, the Bliss excess [2] was -0.03 and the Bliss excess [3] was -0.0595. The Bliss excess [4] was -0.0665, the Bliss excess [5] was 0.0147 and the Bliss excess [6] was -0.0077. For the same compound, the Bliss excess [7] was -0.0221, the Bliss excess [8] was -0.0318 and the Bliss excess [9] was -0.0553. The Bliss excess [10] was -0.0273, the Bliss excess [11] was 0.0012 and the Bliss excess [12] was 0.0753. It also gave a Bliss excess [13] of -0.0355, a Bliss excess [14] of -0.0282 and a Bliss excess [15] of -0.039. For the same compound, the Bliss excess [16] was -0.037, the Bliss excess [17] was -0.0109 and the Bliss excess [18] was -0.0423. For the same compound, the Bliss excess [19] was -0.0418 and the Bliss excess [20] was -0.0716.

In the case of `COc1nnc2ccc(N3CCC(c4ccc(OCCN5CCN(C)C(=O)[C@H]5C)cc4)CC3)nn12` [AZD5153] + CN(CC[C@H](CSC1=CC=CC=C1)NC2=C(C=C(C=C2)S(=O)(=O)NC(=O)C3=CC=C(C=C3)N4CCC(CC4)[C@H](C5=CC=CC=C5C6=CC=C(C=C6)Cl)O)S(=O)(=O)C(F)(F)F)CCO [AZD4320] (first compound max 1 µM, 7x7, partner max 1 µM), the Bliss excess [1] was -0.0087, the Bliss excess [2] was 0.0111 and the Bliss excess [4] was -0.08. The Bliss excess [5] was 0.0603, the Bliss excess [8] was 0.0508 and the Bliss excess [9] was -0.0318. It also gave a Bliss excess [11] of -0.0008, a Bliss excess [14] of -0.0066 and a Bliss excess [16] of 0.0794. It also gave a Bliss excess [17] of 0.0645, a Bliss excess [18] of 0.0003 and a Bliss excess [20] of 0.0826.

Work on `CC(=O)c1c(C)c2cnc(Nc3ccc(N4CCNCC4)cn3)nc2n(C2CCCC2)c1=O` [Palbociclib] + CN(CC[C@H](CSC1=CC=CC=C1)NC2=C(C=C(C=C2)S(=O)(=O)NC(=O)C3=CC=C(C=C3)N4CCC(CC4)[C@H](C5=CC=CC=C5C6=CC=C(C=C6)Cl)O)S(=O)(=O)C(F)(F)F)CCO [AZD4320] (first compound max 10 µM, 7x7, partner max 1 µM) yielded a Bliss excess [1] of -0.0783, a Bliss excess [2] of -0.0307 and a Bliss excess [4] of -0.129. The Bliss excess [5] was 0.0351, the Bliss excess [8] was -0.0388 and the Bliss excess [9] was -0.0036. It also gave a Bliss excess [11] of -0.0446, a Bliss excess [14] of -0.0742 and a Bliss excess [16] of -0.0254. The Bliss excess [17] was -0.0289, the Bliss excess [18] was -0.0292 and the Bliss excess [20] was -0.0409.

`CCc1c2c(nc3ccc(O)cc13)-c1cc3c(c(=O)n1C2)COC(=O)[C@]3(O)CC` [SN-38] + O=C(c1cc(Cc2n[nH]c(=O)c3ccccc23)ccc1F)N1CCN(C(=O)C2CC2)CC1 [Olaparib] (first compound max 0.3 µM, 7x7, partner max 10 µM) showed a Bliss excess [2] of 0.0707, a Bliss excess [3] of 0.107 and a Bliss excess [4] of -0.0277. It also gave a Bliss excess [5] of 0.0532, a Bliss excess [6] of -0.0056 and a Bliss excess [7] of 0.0419. It also gave a Bliss excess [8] of 0.0937, a Bliss excess [9] of 0.0155 and a Bliss excess [10] of 0.0423. The Bliss excess [11] was 0.0629, the Bliss excess [12] was 0.0204 and the Bliss excess [13] was 0.083. The Bliss excess [15] was 0.0371, the Bliss excess [16] was 0.0263 and the Bliss excess [17] was 0.075. It also gave a Bliss excess [19] of 0.0833 and a Bliss excess [20] of 0.0702.

`C[C@@H](c1ccc2nccn2c1)n1nnc2ncc(-c3cnn(C)c3)nc21` [Savolitinib] + CN(CC[C@H](CSC1=CC=CC=C1)NC2=C(C=C(C=C2)S(=O)(=O)NC(=O)C3=CC=C(C=C3)N4CCC(CC4)[C@H](C5=CC=CC=C5C6=CC=C(C=C6)Cl)O)S(=O)(=O)C(F)(F)F)CCO [AZD4320] (first compound max 1 µM, 7x7, partner max 1 µM) gave a Bliss excess [1] of -0.0231, a Bliss excess [2] of 0.0011 and a Bliss excess [4] of -0.0896. The Bliss excess [5] was -0.0513, the Bliss excess [8] was -0.0642 and the Bliss excess [9] was -0.0815. It also gave a Bliss excess [11] of -0.0078, a Bliss excess [14] of -0.0454 and a Bliss excess [16] of -0.0152. It also gave a Bliss excess [17] of -0.0513, a Bliss excess [18] of -0.0266 and a Bliss excess [20] of -0.0284.
